The values below come from PMC7442650, “A machine learning-based chemoproteomic approach to identify drug targets and binding sites in complex proteomes” (Nature Communications, 2020).

The target of test [1] is SRPK1_HUMAN (SRSF protein kinase 1) (Homo sapiens, UniProt Q96SB4). Nature of the test: LiP-Quant, HeLa lysate. The format is binding.
Test [2] addresses CAMK2G (Calcium/calmodulin-dependent protein kinase type II subunit gamma, KCC2G_HUMAN) (Homo sapiens, UniProt Q13555). Briefly: LiP-Quant, HeLa lysate. The format is binding. The note with it: peptide NLINQMLTINPAK
The next test concerns the target MAPK2K1 (MAP2K1) (Homo sapiens, UniProt Q02750). Nature of the test: LiP-Quant, HeLa lysate. In kind it is binding.
A further test concerns the target RPS6KA3 (Homo sapiens, UniProt P51812). Briefly: Deep LiP-Quant (4h gradient), HeLa lysate. The format is binding.
The next test concerns the target NEK9 (Homo sapiens, UniProt Q8TD19). Briefly: Deep LiP-Quant (4h gradient), HeLa lysate.
Test [3] concerns KS6A2_HUMAN (Ribosomal protein S6 kinase alpha-2).
In a further test the target is EIF2AK2 (Homo sapiens, UniProt P19525). Nature of the test: Deep LiP-Quant (4h gradient), HeLa lysate. In kind it is binding.
Chain of EIF2AK2 (P19525 whole entry): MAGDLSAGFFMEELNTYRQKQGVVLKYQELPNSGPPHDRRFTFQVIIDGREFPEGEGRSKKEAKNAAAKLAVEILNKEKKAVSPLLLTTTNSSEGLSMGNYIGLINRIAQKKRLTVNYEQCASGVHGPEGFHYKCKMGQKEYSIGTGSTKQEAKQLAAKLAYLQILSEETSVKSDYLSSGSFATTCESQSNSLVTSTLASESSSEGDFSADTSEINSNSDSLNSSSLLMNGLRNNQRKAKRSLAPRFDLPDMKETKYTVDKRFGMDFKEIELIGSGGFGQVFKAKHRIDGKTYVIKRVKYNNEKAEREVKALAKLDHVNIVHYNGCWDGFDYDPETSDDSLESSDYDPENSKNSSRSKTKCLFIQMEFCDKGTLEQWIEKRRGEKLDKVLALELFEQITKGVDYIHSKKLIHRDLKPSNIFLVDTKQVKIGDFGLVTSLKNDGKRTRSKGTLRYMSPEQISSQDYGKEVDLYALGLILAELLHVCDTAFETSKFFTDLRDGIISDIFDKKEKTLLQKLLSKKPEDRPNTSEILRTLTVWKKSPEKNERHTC
The target of test [4] is KS6A3_HUMAN (Ribosomal protein S6 kinase alpha-3) (Homo sapiens, UniProt P51812). Nature of the test: LiP-Quant, HeLa lysate. In kind it is binding.
Chain of KS6A3_HUMAN (Ribosomal protein S6 kinase alpha-3) (P51812 whole entry): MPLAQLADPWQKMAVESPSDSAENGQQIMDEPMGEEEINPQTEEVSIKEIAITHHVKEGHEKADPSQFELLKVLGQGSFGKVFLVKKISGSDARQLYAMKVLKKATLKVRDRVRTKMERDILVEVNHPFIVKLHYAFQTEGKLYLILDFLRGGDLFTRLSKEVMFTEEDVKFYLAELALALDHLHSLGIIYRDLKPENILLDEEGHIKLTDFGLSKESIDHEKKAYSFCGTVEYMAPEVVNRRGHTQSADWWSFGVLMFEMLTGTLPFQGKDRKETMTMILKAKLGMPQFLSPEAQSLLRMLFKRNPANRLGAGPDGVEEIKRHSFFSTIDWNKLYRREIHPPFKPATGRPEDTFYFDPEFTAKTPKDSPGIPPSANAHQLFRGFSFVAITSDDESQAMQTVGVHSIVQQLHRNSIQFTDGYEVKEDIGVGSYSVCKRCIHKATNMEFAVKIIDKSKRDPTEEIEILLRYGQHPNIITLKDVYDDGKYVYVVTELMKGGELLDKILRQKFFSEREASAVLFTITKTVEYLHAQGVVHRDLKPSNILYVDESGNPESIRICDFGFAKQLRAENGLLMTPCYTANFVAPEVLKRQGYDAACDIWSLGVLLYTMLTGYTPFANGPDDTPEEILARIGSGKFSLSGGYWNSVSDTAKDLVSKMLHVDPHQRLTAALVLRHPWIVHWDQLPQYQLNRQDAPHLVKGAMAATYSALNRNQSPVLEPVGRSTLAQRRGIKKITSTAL
Test [5] addresses CAMK2G (KCC2G_HUMAN, Calcium/calmodulin-dependent protein kinase type II subunit gamma) (Homo sapiens, UniProt Q13555). Nature of the test: LiP-Quant, HeLa lysate. In kind it is binding. The note with it: staurosporine sheet; peptide NLINQMLTINPAK; LIPRank 5.
The next test relates to Botrytis cinerea. Nature of the test: Cell viability (IC50) assay, inhibition of cell growth by optical density. The note with it: three days, Rep 1-3.
For another test, the system named is His-tagged Bcin06g02870. Briefly: Cellular thermal shift assay (CETSA), western blot. The format is cell-based, Botrytis cinerea. The note with it: in vivo treatment, 56 °C. The procedure:
Botrytis cinerea BO47 (CK1 His-Tagged) cell suspension was adjusted to 1 × 10^6 sp/ml GYPm and incubated for 24 h at 21 °C (110 rpm). […] Cells were harvested by filtration (100 µm) and rinsed with 15 ml of ice-cold HEPES buffer (0.1 M HEPES, 50 mM NaCl, pH 7.5). Harvested mycelium was resuspended in 3.5 ml HEPES buffer and kept on ice. 500 µl of each concentration was transferred to a 2 ml Eppendorf tube and heated to 56 °C on a thermoshaker for 3 min, an additional aliquot from each concentration was left unheated. After heating, cells were kept on ice for 3 min, snap frozen in liquid nitrogen, lyophilized overnight and then stored at −80 °C until protein extraction.
Lyophilized mycelium was lysed using a Retsch mixer mill (MM 400) with 3 mm tungsten carbide beads (30 Hz for 3 s, two cycles), then 500 µl of cold protein extraction buffer (50 mM HEPES, 50 mM NaCl, 0.4% NP-40) was added. Lysate was incubated for 10 min at 25 °C, centrifuged (10 min, 14,000g) and the supernatant was retained. The lysate was further centrifuged (20 min, 73,400g) to eliminate insoluble proteins. The supernatant was collected, and protein concentration was determined using the Qubit protein assay kit (#Q33211) and stored at −20 °C.
Target engagement was assessed by western blot. […] The membrane (target protein) and gel (loading control) were imaged using a ChemiDocXRS camera and quantified using ImageJ[43]. […]

In test [6] the target is T1, Botrytis cinerea MBP-CK1 recombinant enzyme (MBP-tagged Bcin06g02870) (Botrytis cinerea, UniProt A0A384JJQ0).
T1 sequence (A0A384JJQ0 1-368): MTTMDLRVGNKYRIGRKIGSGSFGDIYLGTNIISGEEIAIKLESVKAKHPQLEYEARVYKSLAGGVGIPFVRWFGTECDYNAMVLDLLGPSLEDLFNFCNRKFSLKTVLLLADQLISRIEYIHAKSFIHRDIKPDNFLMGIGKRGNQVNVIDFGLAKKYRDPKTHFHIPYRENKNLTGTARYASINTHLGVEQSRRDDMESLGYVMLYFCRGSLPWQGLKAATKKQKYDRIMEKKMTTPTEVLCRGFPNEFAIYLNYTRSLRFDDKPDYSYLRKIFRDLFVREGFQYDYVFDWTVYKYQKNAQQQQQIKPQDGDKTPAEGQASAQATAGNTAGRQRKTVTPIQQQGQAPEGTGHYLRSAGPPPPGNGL
Briefly: CK1 kinase assay (LANCE Ultra TR-FRET). The format is biochemical. The note with it: for % Inhibition of CK-1: rep 1, rep2. The source says: We calculated the center of mass of the #6 and #7 ranking LiP-Quant peptides to estimate the position of the BAYE-004 binding site within Bcin06g02870. Here we considered two LiP-Quant peptides for the center of mass calculation, as there were only two high scoring LiP-Quant peptides that could be used. The putative binding site of the drug maps in the ATP-binding site of Bcin06g02870, which is also a common binding site for kinase inhibitors (Fig. 4e, Supplementary Data 3). Finally, we performed a LANCE Ultra kinase assay (Perkin Elmer) to measure the phosphorylation activity on a peptide substrate of a purified MBP-tagged version of Bcin06g02870.
The LANCE Ultra time resolved fluorescence resonance energy transfer (Tr-FRET) kinase assay (Perkin Elmer, #TRF0300-C) protocol was used according to manufacturer’s instructions with adaptations made for the following conditions. […] The reaction was performed in duplicates in the dark at 30 °C for 90 min. Plates were read in a Victor2 Perkin plate reader (excitation 340 nm/emission 665 nm).

Test [7] has as its target Bcin16g04330 (predicted glycogen synthase kinase-3β homolog) (Botrytis cinerea, UniProt A0A384K7E5). Nature of the test: LiP-Quant, Botrytis cinerea lysate. The note with it: read-out: extrapolated average EC50; top two ranking LiP-Quant peptides.
Test [8] deals with Bcin06g02870 (predicted casein kinase I homolog) (Botrytis cinerea, UniProt A0A384JJQ0). Briefly: LiP-Quant, Botrytis cinerea lysate. In kind it is binding. The text has this:
Given its abilities to identify and characterize drug targets and their binding sites, we applied LiP-Quant to a research fungicide compound with an unknown target (BAYE-004, Fig. 4a).

Setting [9] is: peptide STAGNFLVNPLEPK, SRPK1 (Q96SB4).
[10] abbreviates: protein level, experiment LiP-Quant.
Where [11] appears, read: peptide LPSGVFSL, MAP2K1 (Q02750).
[12] abbreviates: peptide VLGQGSFGK, RPS6KA3 (P51812).

“And” between values parts separate entries of the source, which are not always exact repeats. Equal values may be shown once. Read-outs that look alike come from different tables or passages of the source.

Chain of MAPK2K1 (MAP2K1) (Q02750 whole entry): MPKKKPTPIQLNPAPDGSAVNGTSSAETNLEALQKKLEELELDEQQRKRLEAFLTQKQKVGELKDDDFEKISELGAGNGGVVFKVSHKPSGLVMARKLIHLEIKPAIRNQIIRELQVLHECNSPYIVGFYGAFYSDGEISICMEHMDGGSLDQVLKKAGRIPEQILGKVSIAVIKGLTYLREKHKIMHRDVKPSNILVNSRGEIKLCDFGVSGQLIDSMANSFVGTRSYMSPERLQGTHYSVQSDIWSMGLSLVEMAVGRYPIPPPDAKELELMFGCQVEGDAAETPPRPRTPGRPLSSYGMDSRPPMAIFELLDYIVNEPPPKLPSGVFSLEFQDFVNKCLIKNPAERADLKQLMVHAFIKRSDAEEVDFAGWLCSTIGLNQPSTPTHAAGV
Chain of CAMK2G (Calcium/calmodulin-dependent protein kinase type II subunit gamma, KCC2G_HUMAN) (Q13555 whole entry): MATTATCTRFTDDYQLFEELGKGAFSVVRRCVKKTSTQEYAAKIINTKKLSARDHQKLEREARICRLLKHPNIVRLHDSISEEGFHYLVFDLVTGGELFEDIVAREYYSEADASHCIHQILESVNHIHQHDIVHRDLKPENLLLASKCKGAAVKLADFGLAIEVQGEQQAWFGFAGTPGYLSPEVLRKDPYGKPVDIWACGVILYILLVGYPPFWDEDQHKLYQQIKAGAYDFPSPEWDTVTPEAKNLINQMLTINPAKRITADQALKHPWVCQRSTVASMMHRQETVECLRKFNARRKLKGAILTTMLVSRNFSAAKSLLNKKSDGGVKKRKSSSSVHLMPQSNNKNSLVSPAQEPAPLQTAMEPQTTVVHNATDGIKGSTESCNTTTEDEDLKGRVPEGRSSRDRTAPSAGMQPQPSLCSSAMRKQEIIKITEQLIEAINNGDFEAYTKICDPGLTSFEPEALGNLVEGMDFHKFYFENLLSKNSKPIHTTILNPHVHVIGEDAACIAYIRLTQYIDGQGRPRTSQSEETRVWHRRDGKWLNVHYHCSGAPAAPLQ
Chain of SRPK1_HUMAN (SRSF protein kinase 1) (Q96SB4 whole entry): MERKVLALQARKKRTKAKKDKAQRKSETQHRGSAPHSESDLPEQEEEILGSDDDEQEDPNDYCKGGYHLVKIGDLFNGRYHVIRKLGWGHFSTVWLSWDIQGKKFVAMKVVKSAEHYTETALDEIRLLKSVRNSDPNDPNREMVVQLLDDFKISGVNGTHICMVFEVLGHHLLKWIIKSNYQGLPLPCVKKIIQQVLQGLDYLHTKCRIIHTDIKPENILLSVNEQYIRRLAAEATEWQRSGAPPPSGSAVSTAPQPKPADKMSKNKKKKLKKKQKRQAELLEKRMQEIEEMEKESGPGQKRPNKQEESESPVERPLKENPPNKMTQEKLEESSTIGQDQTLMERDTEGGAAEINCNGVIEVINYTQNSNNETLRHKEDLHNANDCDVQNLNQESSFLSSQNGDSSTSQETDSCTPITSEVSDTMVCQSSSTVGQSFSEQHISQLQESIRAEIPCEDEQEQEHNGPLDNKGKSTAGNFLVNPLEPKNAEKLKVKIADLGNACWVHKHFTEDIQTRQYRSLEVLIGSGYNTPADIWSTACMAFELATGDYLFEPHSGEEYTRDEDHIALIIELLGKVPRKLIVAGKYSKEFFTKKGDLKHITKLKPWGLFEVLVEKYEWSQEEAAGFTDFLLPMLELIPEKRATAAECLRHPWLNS
Chain of RPS6KA3 (P51812 whole entry): as the sequence (P51812 whole entry) above
Chain of NEK9 (Q8TD19 whole entry): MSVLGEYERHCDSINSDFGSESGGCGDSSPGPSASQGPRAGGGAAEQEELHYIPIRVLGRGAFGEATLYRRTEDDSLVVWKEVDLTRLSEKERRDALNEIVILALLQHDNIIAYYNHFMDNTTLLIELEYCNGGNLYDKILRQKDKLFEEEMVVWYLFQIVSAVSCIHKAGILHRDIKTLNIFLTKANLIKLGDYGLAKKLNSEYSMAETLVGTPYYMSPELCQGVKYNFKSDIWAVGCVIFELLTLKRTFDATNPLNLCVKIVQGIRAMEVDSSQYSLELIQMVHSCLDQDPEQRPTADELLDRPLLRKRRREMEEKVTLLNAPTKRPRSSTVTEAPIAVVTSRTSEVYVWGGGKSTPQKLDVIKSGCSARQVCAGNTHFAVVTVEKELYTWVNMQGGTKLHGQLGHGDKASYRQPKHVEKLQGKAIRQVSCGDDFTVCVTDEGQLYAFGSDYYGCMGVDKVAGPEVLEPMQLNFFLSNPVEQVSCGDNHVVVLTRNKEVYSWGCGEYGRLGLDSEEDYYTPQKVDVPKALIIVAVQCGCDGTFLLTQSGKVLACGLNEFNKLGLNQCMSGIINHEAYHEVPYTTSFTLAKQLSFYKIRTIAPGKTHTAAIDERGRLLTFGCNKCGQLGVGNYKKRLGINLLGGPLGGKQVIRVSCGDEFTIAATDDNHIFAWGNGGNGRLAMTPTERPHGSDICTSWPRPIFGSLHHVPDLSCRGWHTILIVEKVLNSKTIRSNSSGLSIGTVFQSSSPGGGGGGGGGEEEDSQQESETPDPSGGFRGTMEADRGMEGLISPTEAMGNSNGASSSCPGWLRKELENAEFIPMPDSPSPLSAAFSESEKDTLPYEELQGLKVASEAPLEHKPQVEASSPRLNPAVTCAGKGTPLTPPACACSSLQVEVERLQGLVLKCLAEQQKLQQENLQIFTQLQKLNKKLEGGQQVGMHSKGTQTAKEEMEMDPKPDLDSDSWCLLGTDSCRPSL
Chain of CAMK2G (KCC2G_HUMAN, Calcium/calmodulin-dependent protein kinase type II subunit gamma) (Q13555 whole entry): as the sequence (Q13555 whole entry) above
Chain of Bcin16g04330 (predicted glycogen synthase kinase-3β homolog) (A0A384K7E5 1-398): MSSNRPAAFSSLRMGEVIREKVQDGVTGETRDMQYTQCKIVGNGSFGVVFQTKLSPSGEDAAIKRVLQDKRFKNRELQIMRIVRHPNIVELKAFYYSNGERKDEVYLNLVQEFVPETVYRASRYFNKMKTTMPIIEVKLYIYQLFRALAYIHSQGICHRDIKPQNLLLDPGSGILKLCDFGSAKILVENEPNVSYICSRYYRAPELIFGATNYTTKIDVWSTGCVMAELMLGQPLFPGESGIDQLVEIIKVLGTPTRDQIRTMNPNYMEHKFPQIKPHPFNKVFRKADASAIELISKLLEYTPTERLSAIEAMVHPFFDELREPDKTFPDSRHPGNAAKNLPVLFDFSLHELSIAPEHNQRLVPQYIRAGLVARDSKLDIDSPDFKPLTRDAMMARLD

As for `CN[C@@H]1C[C@H]2O[C@@](C)([C@@H]1OC)n1c3ccccc3c3c4c(c5c6ccccc6n2c5c31)C(=O)NC4` [Staurosporine], the DRC in [1] (setting [9]) was 0.9525; in [2], 0.9333; at MAPK2K1 (MAP2K1) (setting [11]), 0.9366; in test [4] (setting [12]) it was 0.9262. Moreover, the LIPRank in [1] (setting [9]) is 1; in [1] (setting [10]) it was 1; in [2], 5; on MAPK2K1 (MAP2K1) (setting [11]) it was 2; on MAPK2K1 (MAP2K1) (peptide VSIAVIK (selumetinib sheet) or protein level (Supp Data 7)) it was 2; at RPS6KA3 (protein level) it was 3. Further, the LIPRank at NEK9 (protein level) stood at 4; on EIF2AK2 (protein level), 2; in [4] (setting [12]), 4; in [4] (setting [10]) it was 4. The LIPscore stood at 3.113 in test [1] (setting [10]); 3.113 in test [1] (staurosporine sheet, peptide […], LIPRank 1); 2.655 in test [2]; 2.822 on MAPK2K1 (MAP2K1) (peptide VSIAVIK (selumetinib sheet) or best peptide of the protein (Supp Data 7)); 2.822 on MAPK2K1 (MAP2K1) (staurosporine sheet, peptide LPSGVFSL, LIPRank 2); 2.777 in [3] (setting [10]). Moreover, the LIPscore in [3] (staurosporine sheet, peptide […], LIPRank 3) is on record as 2.777; in test [4] (setting [10]), 2.665; in test [4] (staurosporine sheet, peptide VLGQGSFGK, LIPRank 4) it was 2.665; in test [5], 2.655. In addition, the LiP Score at RPS6KA3 (peptide ADPSQFELLK) was found to be 4.635; on NEK9 (peptide GAFGEATLYR) it was 4.511; on EIF2AK2 (peptide IGDFGLVTSLK), 4.708.

For `CCC(=O)Nc1cc(-c2c(-c3ccc(F)cc3)nn3c2CCC3)ccn1` [BAYE-004], the inhibition at 0.40745 µM in the test on Botrytis cinerea (Botrytis cinerea, 72 h, read-out: Inhibition of growth, Dose 0.40745 uM) is 76.8%. Besides, in the test on Botrytis cinerea (Botrytis cinerea, 72 h, read-out: Inhibition of growth, Dose 1.22234 uM), the inhibition at 1.22234 µM was determined as 82.5%. In addition, the Inhibition of growth in the test with Botrytis cinerea (Dose 0.40745 uM) is 76.882 and 79.9248; with Botrytis cinerea (Dose 1.22234 uM), 82.7279 and 79.8427. Besides, the “thermal stability upon treatment” value in the test with His-tagged Bcin06g02870 is “thermally stabilized”. Also, the “% Inhibition of CK-1” value is 92% and 90% in test [6] (concentration 1,00E-04 (unit not given)); 98% and 105% in test [6] (concentration 1,00E-05 (unit not given)); 99% and 101% in [6] (concentration 1,00E-06 (unit not given)); 84% and 91% in test [6] (concentration 1,00E-07 (unit not given)); 53% and 50% in test [6] (concentration 1,00E-08 (unit not given)); 9% in test [6] (concentration 1,00E-09 (unit not given)). Besides, the IC50 in test [6] (read-out: IC50 (% Inhibition of CK-1)) amounted to 12.5 nM. For the same molecule, the EC50 in test [7] was 1600 nM; in [8] (two peptides, LiP-Quant rank #6 and #7), 6 nM and 5 nM. Moreover, the “EC50 lower than EC50 of the rest of the LiP-Quant peptides above the 1.5 threshold” value in [8] is given as “approximately 1000 fold”.
